In patent publication US20260007133A1, “HERBICIDAL COMPOSITION COMPRISING AZINE COMPOUNDS” (BASF SE, priority 2022, published 2026):

Legend:
Assay type in all cases: in vivo
Abutilon theophrasti [1] = experiment: Greenhouse pre-emergence (PRE) herbicidal test on ABUTH; details: for % activity solo application: ABUTH
In short: (§1)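 Seeds were sown per species in pots of loamy sand with about 3.0% humus, treated pre-emergence, watered and hooded until rooted. Plants grew at 10-25° C or 20-35° C depending on species. Damage was scored 0-100 (100 = no emergence or above-ground parts destroyed) at 20 DAT.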

Amaranthus retroflexus [2] = experiment: Greenhouse pre-emergence (PRE) herbicidal test on AMARE; details: 20 DAT; for % activity solo application: PRE, AMARE
In short: as §1

Ambrosia artemisiifolia = experiment: Greenhouse pre-emergence (PRE) herbicidal test on AMBEL; details: for % activity solo application / % activity: PRE; for % activity solo application: AMBEL; for % activity: 10 DAT
Commelina benghalensis = experiment: Greenhouse pre-emergence (PRE) herbicidal test on COMBE; details: 20 DAT
In short: as §1

Euphorbia heterophylla [3] = experiment: Greenhouse pre-emergence (PRE) herbicidal test on EPHHL; details: 20 DAT; for inhibition at 25 g/ha: use rate 25 gai/ha
In short: as §1

Lolium multiflorum = experiment: Greenhouse pre-emergence (PRE) herbicidal test on LOLMU; details: 20 DAT; for % activity solo application: PRE, LOLMU
In short: as §1

Setaria viridis = experiment: Greenhouse pre-emergence (PRE) herbicidal test on SETVI; details: 20 DAT; for % activity solo application: PRE, SETVI
In short: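 Seeds sown per species in pots of loamy sand with approx. 3.0% humus; compounds suspended or emulsified in water were sprayed via fine nozzles directly after sowing. Pots were watered and hooded until rooted, held at 10-25° C. or 20-35° C. by species, and scored 0–100 (100 = no emergence/complete destruction) 20 DAT.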

Abutilon theophrasti [4] = experiment: Greenhouse post-emergence (POST) herbicidal test on ABUTH; details: 20 DAT
In short: (§2)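 Weeds grown in loamy sand (~3.0% humus) to 3–15 cm were sprayed post-emergence with compounds suspended or emulsified in water, formulated as 5% emulsion concentrates. Plants were kept at 10-25 °C or 20-35 °C by species. Damage was scored 0–100 (100 = complete destruction) at 20 DAT.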

Amaranthus retroflexus [5] = experiment: Greenhouse post-emergence (POST) herbicidal test on AMARE; details: 20 DAT; for inhibition at 25 g/ha: use rate 25 gai/ha
In short: as §2

Echinochloa crus-galli [6] = experiment: Greenhouse post-emergence (POST) herbicidal test on ECHCG; details: Echinochloa crus-galli, post-emergence, 480 h, ECHCG POST, 20 DAT, use rate 25 gai/ha
In short: as §2

Euphorbia heterophylla [7] = experiment: Greenhouse post-emergence (POST) herbicidal test on EPHHL; details: 20 DAT; for % activity solo application: POST, EPHHL
In short: as §2

Geranium pusillum [8] = experiment: Greenhouse post-emergence (POST) herbicidal test on GERPU; details: Geranium pusillum, post-emergence, 480 h, 20 DAT
In short: as §2

Ipomoea hederacea [9] = experiment: Greenhouse post-emergence (POST) herbicidal test on IPOHE; details: 20 DAT; for % activity solo application: POST, IPOHE
In short: as §2

Ipomoea hederacea [10] = experiment: Greenhouse pre-emergence (PRE) herbicidal test on IPOHE; details: Ipomoea hederacea, pre-emergence, 480 h, PRE, IPOHE, 20 DAT
Excerpt: (§3) The culture containers used were plastic pots containing loamy sand with approximately 3.0% of humus as substrate. The seeds of the test plants were sown separately for each species.
(§4) For the pre-emergence treatment, the active compounds, suspended or emulsified in water, were applied directly after sowing by means of finely distributing nozzles. The containers were irrigated gently to promote germination and growth and subsequently covered with transparent plastic hoods until the plants had rooted. This cover caused uniform germination of the test plants unless this was adversely affected by the active compounds.
(§5) Depending on the species, the plants were kept at 10-25° C. and 20-35° C., respectively.
(§6) The test period extended over 2 to 4 weeks. During this time, the plants were tended and their response to the individual treatments was evaluated.
(§7) Evaluation was carried out using a scale from 0 to 100. 100 means no emergence of the plants, or complete destruction of at least the above-ground parts, and 0 means no damage or normal course of growth. A good herbicidal activity is given at values of at least 70, and very good herbicidal activity is given at values of at least 85.
(§8) If not stated differently, the respective components A and B, and if appropriate, C were formulated as a 5% by weight strength emulsion concentrate and, with addition of the amount of solvent system, introduced into the spray liquor used for applying the active compound.
(§9) As indicated application was either post emergent (POST) at the respective growth stage (GS) of the weed (BBCH code), or pre-emergent (PRE).
(§10) Assessment was 20 days after treatment (DAT).

Alopecurus myosuroides = experiment: Greenhouse pre-emergence (PRE) herbicidal test on ALOMY; details: PRE, ALOMY, 20 DAT
In short: as §1

Geranium pusillum [11] = experiment: Greenhouse pre-emergence (PRE) herbicidal test on GERPU; details: PRE, 20 DAT; for % activity: GERPU
Excerpt: as §3, §4, §5, §6, §7, §8, §9, §10

Echinochloa crus-galli [12] = experiment: Greenhouse pre-emergence (PRE) herbicidal test on ECHCG; details: PRE; for % activity solo application: ECHCG, 20 DAT; for % activity: 10 DAT
Digitaria sanguinalis = experiment: Greenhouse post-emergence (POST) herbicidal test on DIGSA; details: POST, DIGSA, 20 DAT
In short: as §2

AMAPA = experiment: Greenhouse pre-emergence (PRE) herbicidal test on AMAPA; details: use rate 25 gai/ha, 10 DAT

Compound: CC(C)N(C(=O)COc1nnc(C(F)(F)F)s1)c1ccc(F)cc1 [Flufenacet, flufenacet]
- inhibition at 12.5 g/ha (Abutilon theophrasti [1]; Abutilon theophrasti, pre-emergence, 480 h, ABUTH PRE, 20 DAT, use rate 12.5 gai/ha): 0%
- inhibition at 12.5 g/ha (Amaranthus retroflexus [2]; Amaranthus retroflexus, pre-emergence, 480 h, AMARE PRE, use rate 12.5 gai/ha): 0%
- inhibition at 12.5 g/ha (Ambrosia artemisiifolia; Ambrosia artemisiifolia, pre-emergence, 480 h, AMBEL PRE, 20 DAT, use rate 12.5 gai/ha): 0%
- inhibition at 12.5 g/ha (Commelina benghalensis; Commelina benghalensis, pre-emergence, 480 h, COMBE PRE, use rate 12.5 gai/ha): 10%
- inhibition at 25 g/ha (Commelina benghalensis; Commelina benghalensis, pre-emergence, 480 h, COMBE PRE, use rate 25 gai/ha): 35%
- inhibition at 12.5 g/ha (Euphorbia heterophylla [3]; Euphorbia heterophylla, pre-emergence, 480 h, EPHHL PRE, use rate 12.5 gai/ha): 10%
- inhibition at 25 g/ha (Euphorbia heterophylla [3]; Euphorbia heterophylla, pre-emergence, 480 h, EPHHL PRE): 10%
- inhibition at 12.5 g/ha (Lolium multiflorum; Lolium multiflorum, pre-emergence, 480 h, LOLMU PRE, use rate 12.5 gai/ha): 0%
- inhibition at 25 g/ha (Lolium multiflorum; Lolium multiflorum, pre-emergence, 480 h, LOLMU PRE, use rate 25 gai/ha): 35%
- inhibition at 25 g/ha (Setaria viridis; Setaria viridis, pre-emergence, 480 h, SETVI PRE, use rate 25 gai/ha): 65%
- inhibition at 25 g/ha (Abutilon theophrasti [4]; Abutilon theophrasti, post-emergence, 480 h, ABUTH POST, use rate 25 gai/ha): 0%
- inhibition at 12.5 g/ha (Amaranthus retroflexus [5]; Amaranthus retroflexus, post-emergence, 480 h, AMARE POST, use rate 12.5 gai/ha): 15%
- inhibition at 25 g/ha (Amaranthus retroflexus [5]; Amaranthus retroflexus, post-emergence, 480 h, AMARE POST): 25%
- inhibition at 25 g/ha (Echinochloa crus-galli [6]): 85%
- inhibition at 12.5 g/ha (Euphorbia heterophylla [7]; Euphorbia heterophylla, post-emergence, 480 h, EPHHL POST, use rate 12.5 gai/ha): 0%
- inhibition at 12.5 g/ha (Geranium pusillum [8]; GERPU POST, use rate 12.5 gai/ha): 5%
- inhibition at 12.5 g/ha (Ipomoea hederacea [9]; Ipomoea hederacea, post-emergence, 480 h, IPOHE POST, use rate 12.5 gai/ha): 0%
- inhibition at 25 g/ha (Ipomoea hederacea [9]; Ipomoea hederacea, post-emergence, 480 h, IPOHE POST, use rate 25 gai/ha): 0%

Compound: Cc1ccccc1CO[C@@H]1C[C@@]2(C(C)C)CC[C@]1(C)O2 (racemic) [Cinmethylin, cinmethylin]
- inhibition at 25 g/ha (Euphorbia heterophylla [3]; Euphorbia heterophylla, pre-emergence, 480 h, PRE, EPHHL): 0%
- inhibition at 50 g/ha (Euphorbia heterophylla [3]; Euphorbia heterophylla, pre-emergence, 480 h, PRE, EPHHL, use rate 50 gai/ha): 0%
- inhibition at 25 g/ha (Ipomoea hederacea [10]; use rate 25 gai/ha): 0%
- inhibition at 50 g/ha (Ipomoea hederacea [10]; use rate 50 gai/ha): 0%
- inhibition at 50 g/ha (Abutilon theophrasti [4]; Abutilon theophrasti, post-emergence, 480 h, POST, ABUTH, use rate 50 gai/ha): 0%
- inhibition at 100 g/ha (Abutilon theophrasti [4]; Abutilon theophrasti, post-emergence, 480 h, POST, ABUTH, use rate 100 gai/ha): 0%
- inhibition at 25 g/ha (Amaranthus retroflexus [5]; Amaranthus retroflexus, post-emergence, 480 h, POST, AMARE): 0%
- inhibition at 100 g/ha (Amaranthus retroflexus [5]; Amaranthus retroflexus, post-emergence, 480 h, POST, AMARE, use rate 100 gai/ha, read-out: % activity): 30%
- inhibition at 25 g/ha (Geranium pusillum [8]; POST, GERPU, use rate 25 gai/ha): 10%

Compound: O=C(Nc1ccc(F)cc1)c1cccc(Oc2cccc(C(F)(F)F)c2)n1 [Picolinafen, picolinafen]
- % activity (Alopecurus myosuroides; use rate 50 gai/ha): 25%
- % activity (Geranium pusillum [11]; use rate 50 gai/ha): 15%
- % activity (Geranium pusillum [11]; use rate 100 gai/ha): 40%

Compound: COc1cc(OC)nc(Oc2cccc(Oc3nc(OC)cc(OC)n3)c2C(=O)O)n1 [Bispyribac-Sodium, bispyribac-sodium]
- inhibition at […] (Abutilon theophrasti [1]; Abutilon theophrasti, pre-emergence, 480 h, PRE, use rate 7.5 gai/ha, 20 DAT, read-out: % activity): 5%
- inhibition at 15 g/ha (Abutilon theophrasti [1]; Abutilon theophrasti, pre-emergence, 480 h, PRE, use rate 15 gai/ha, 20 DAT, read-out: % activity): 45%
- inhibition at 15 g/ha (Commelina benghalensis; Commelina benghalensis, pre-emergence, 480 h, PRE, use rate 15 gai/ha): 80%
- inhibition at […] (Geranium pusillum [11]; Geranium pusillum, pre-emergence, 480 h, use rate 7.5 gai/ha): 75%

Compound: CCc1cccc(C)c1N(C(=O)CCl)[C@@H](C)COC [S-Metolachlor, S-metolachlor]
- % activity solo application (Abutilon theophrasti [1]; PRE, 25 gai/ha, 20 DAT): 0%
- % activity solo application (Abutilon theophrasti [1]; PRE, 50 gai/ha, 20 DAT): 0%
- % activity solo application (Alopecurus myosuroides; 25 gai/ha): 0%
- % activity solo application (Alopecurus myosuroides; 50 gai/ha): 0%
- % activity solo application (Amaranthus retroflexus [2]; 25 gai/ha): 20%
- % activity solo application (Amaranthus retroflexus [2]; 50 gai/ha): 20%
- % activity solo application (Ambrosia artemisiifolia; 25 gai/ha, 20 DAT): 0%
- % activity solo application (Ambrosia artemisiifolia; 50 gai/ha, 20 DAT): 0%
- % activity solo application (Commelina benghalensis; PRE, COMBE, 25 gai/ha): 10%
- % activity solo application (Echinochloa crus-galli [12]; 25 gai/ha): 20%
- % activity solo application (Echinochloa crus-galli [12]; 50 gai/ha): 50%
- % activity solo application (Euphorbia heterophylla [3]; PRE, EPHHL, 25 gai/ha): 0%
- % activity solo application (Euphorbia heterophylla [3]; PRE, EPHHL, 50 gai/ha): 0%
- % activity solo application (Lolium multiflorum; 25 gai/ha): 0%
- % activity solo application (Lolium multiflorum; 50 gai/ha): 0%
- % activity solo application (Setaria viridis; 25 gai/ha): 10%
- % activity solo application (Setaria viridis; 50 gai/ha): 75%
- % activity solo application (Abutilon theophrasti [4]; POST, ABUTH, 25 gai/ha): 0%
- % activity solo application (Abutilon theophrasti [4]; POST, ABUTH, 50 gai/ha): 0%
- % activity solo application (Amaranthus retroflexus [5]; POST, AMARE, 25 gai/ha): 5%
- % activity solo application (Amaranthus retroflexus [5]; POST, AMARE, 50 gai/ha): 60%
- % activity solo application (Digitaria sanguinalis; 25 gai/ha): 0%
- % activity solo application (Digitaria sanguinalis; 50 gai/ha): 10%
- % activity solo application (Euphorbia heterophylla [7]; 25 gai/ha): 0%
- % activity solo application (Euphorbia heterophylla [7]; 50 gai/ha): 5%
- % activity solo application (Ipomoea hederacea [9]; 25 gai/ha): 0%
- % activity solo application (Ipomoea hederacea [9]; 50 gai/ha): 0%

Compound: icafolin
- % activity (Abutilon theophrasti [1]; PRE, use rate 12.5 gai/ha, 10 DAT): 20%
- % activity (Ambrosia artemisiifolia; use rate 25 gai/ha): 10%
- % activity (Ambrosia artemisiifolia; use rate 50 gai/ha): 15%
- % activity (Echinochloa crus-galli [12]; use rate 12.5 gai/ha): 25%
- % activity (Echinochloa crus-galli [12]; use rate 50 gai/ha): 30%
- % activity (AMAPA): 10%
